From patent US11155550B2, “Histone deacetylase inhibitors and methods of use thereof” (Reaction Biology Corp., priority 2018, dated 2021)

Each molecule was assayed against T1, Recombinant human HDAC6 (Homo sapiens, UniProt Q9UBN7) (assay: Biochemical HDAC enzymatic assay, HDAC6). Settings: Table 1; incubation time 10 min.
T1 construct: full-length, MW=180 kDa; GST tag (N); made in house; host or cells: Sf9 insect cells (baculovirus)
T1 sequence (Q9UBN7 1-1215): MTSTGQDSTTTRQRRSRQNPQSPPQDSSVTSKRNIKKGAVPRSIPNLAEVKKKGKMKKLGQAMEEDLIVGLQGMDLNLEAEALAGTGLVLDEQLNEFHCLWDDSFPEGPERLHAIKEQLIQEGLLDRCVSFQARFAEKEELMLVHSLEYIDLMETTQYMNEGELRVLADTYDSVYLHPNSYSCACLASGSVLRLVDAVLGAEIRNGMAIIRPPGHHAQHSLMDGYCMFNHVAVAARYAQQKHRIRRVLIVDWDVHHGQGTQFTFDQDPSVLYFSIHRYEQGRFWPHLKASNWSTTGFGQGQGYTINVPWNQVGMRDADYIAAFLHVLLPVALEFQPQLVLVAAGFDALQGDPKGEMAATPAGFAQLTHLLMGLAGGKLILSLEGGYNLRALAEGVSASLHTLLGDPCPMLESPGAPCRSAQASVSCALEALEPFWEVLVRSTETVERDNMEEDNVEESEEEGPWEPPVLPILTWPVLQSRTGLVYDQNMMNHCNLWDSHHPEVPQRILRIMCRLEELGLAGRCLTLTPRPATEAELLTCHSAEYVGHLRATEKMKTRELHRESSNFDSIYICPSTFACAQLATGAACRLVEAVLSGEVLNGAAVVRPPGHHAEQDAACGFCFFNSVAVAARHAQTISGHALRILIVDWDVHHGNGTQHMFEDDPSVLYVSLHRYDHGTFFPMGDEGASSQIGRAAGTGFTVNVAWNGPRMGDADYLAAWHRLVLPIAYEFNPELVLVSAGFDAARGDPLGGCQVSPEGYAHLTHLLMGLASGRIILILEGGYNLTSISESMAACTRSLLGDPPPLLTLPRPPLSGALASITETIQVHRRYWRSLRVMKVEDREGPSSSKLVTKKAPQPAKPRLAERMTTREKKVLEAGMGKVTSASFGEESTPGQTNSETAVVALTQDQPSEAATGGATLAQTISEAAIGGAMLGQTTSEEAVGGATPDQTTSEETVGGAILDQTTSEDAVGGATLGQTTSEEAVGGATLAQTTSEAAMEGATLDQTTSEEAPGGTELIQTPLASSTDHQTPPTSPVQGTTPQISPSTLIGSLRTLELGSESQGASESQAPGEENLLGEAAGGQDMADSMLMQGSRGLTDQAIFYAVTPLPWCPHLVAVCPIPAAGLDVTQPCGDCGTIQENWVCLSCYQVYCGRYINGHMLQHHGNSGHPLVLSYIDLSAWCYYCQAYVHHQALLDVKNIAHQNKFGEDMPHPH
Procedure: Incubation time for HDAC1/2 is 120 min, and 10 min for other HDACs.
Recombinant human HDAC6 (GenBank Accession No. BC069243), full-length, MW=180 kDa, was expressed by baculovirus in Sf9 insect cells using an N-terminal GST tag.
(§1) • I. Compound handling: Testing compounds were dissolved in 100% DMSO to a specific concentration. The serial dilution was conducted by epMotion 5070 in DMSO. • II. HDAC reaction buffer: 50 mM Tris-HCl, pH8.0, 137 mM NaCl, 2.7 mM KCl, and 1 mM MgCl2, Added fresh: 1 mg/ml BSA, 1% DMSO. • III. Substrate: Fluorogenic HDAC General Substrate for HDAC1, 2, 3, 6, 10, 11 ans Sirt1, 2 and 3: Arg-His-Lys-Lys(Ac); HDAC8 only substrate: Arg-His-Lys(Ac)-Lys(Ac); Class2A Substrate (HDAC4, 5, 7 and 9): Acetyl-Lys(trifluoroacetyl)-AMC; Sirt5 substrate: Ac-Lys(succinyl)-AMC. • IV. General Reaction Procedure: (Standard IC50 determination) • a. Delivered 2× enzyme in wells of reaction plate except No Enzyme (No En) control wells. Add buffer in No En wells. • b. Delivered compounds in 100% DMSO into the enzyme mixture by Acoustic technology (Echo550; nanoliter range). Spin down and pre-incubation. • c. Delivered 2× Substrate Mixture (Fluorogenic HDAC Substrate and co-factor (500 μM of Nicotinamide adenine dinucleotide (NAD^+) in all Sirt assay) in all reaction wells to initiate the reaction. Spin and shake. • d. Incubated for 1-2 hr. at 30° C. with seal. • e. Added Developer with Trichostatin A (or TMP269 or NAD^+) to stop the reaction and to generate fluorescent color. • f. Fluorescence was read (excitatory, 360; emission, 460) using the EnVision Multilabel Plate Reader (Perkin Elmer) • g. Endpoint reading was taken for analysis after the development reaches plateau. • V. Data Analysis: The percentages of enzyme activity (relative to DMSO controls) and IC50 values were calculated using the GraphPad Prism 4 program based on a sigmoidal dose-response equation.
The inhibitory activities of HDAC of compounds of the invention were determined using biochemical HDAC assays. Compounds were tested at the indicated doses in the biochemical assays of HDAC1, HDAC2, HDAC3, HDAC4, HDAC5, HDAC6, HDAC7, HDAC8, HDAC9, HDAC10, or HDAC11 enzyme. The curve fit and IC50 values were calculated using the GraphPad Prism 4 program based on a sigmoidal dose-response equation.
as §1, with “[…]” for “μM”, “equation. […]” for “equation.”

IC50	Structure (SMILES)
> 20000 nM	Nc1ccc(-c2cccs2)cc1NC(=O)c1ccc(CN2C(=O)CCCC23CNC3)cc1 [Example 1, N-(2-amino-5-(thiophen-2-yl)phenyl)-4-((6-oxo-2,5-diazaspiro[3.5]nonan-5-yl)methyl)benzamide]
> 20000 nM	Nc1ccc(-c2cccs2)cc1NC(=O)c1ccc(CN2C(=O)CCC23CCNCC3)cc1 [Example 2, N-(2-amino-5-(thiophen-2-yl)phenyl)-4-((2-oxo-1,8-diazaspiro[4.5]decan-1-yl)methyl)benzamide]
> 10000 nM	Nc1cc(F)ccc1NC(=O)c1ccc(CN2C(=O)CCCC23CNC3)cc1 [Example 3, N-(2-amino-4-fluorophenyl)-4-((6-oxo-2,5-diazaspiro[3.5]nonan-5-yl)methyl)benzamide]
> 20000 nM	CN1CCC2(CC1)CN(c1ccc(C(=O)Nc3cc(-c4cccs4)ccc3N)cn1)C(=O)O2 [Example 4, N-(2-amino-5-(thiophen-2-yl)phenyl)-6-(8-methyl-2-oxo-1-oxa-3,8-diazaspiro[4.5]decan-3-yl)nicotinamide]
> 20000 nM	Nc1ccc(-c2ccc(F)cc2)cc1NC(=O)c1ccc(N2CC3(CCOCC3)OC2=O)nc1 [Example 5, N-(4-amino-4′-fluoro-[1,1′-biphenyl]-3-yl)-6-(2-oxo-1,8-dioxa-3-azaspiro[4.5]decan-3-yl)nicotinamide]
> 20000 nM	Nc1ccc(-c2cccs2)cc1NC(=O)c1ccc(N2CC3(CCNCC3)CCC2=O)nc1 [Example 6, N-(2-amino-5-(thiophen-2-yl)phenyl)-6-(3-oxo-2,9-diazaspiro[5.5]undecan-2-yl)nicotinamide]

Same assay, conditions: Table 2; incubation time 10 min

IC50	Structure (SMILES)
29 nM	O=C(NO)c1ccc(CN2C(=O)c3ccccc3C23OCCO3)cc1 [Compound Example 8, N-hydroxy-4-((3-oxospiro[isoindoline-1,2′-[1,3]dioxolan]-2-yl)methyl)benzamide]
4.5 nM	O=C(NO)c1ccc(CN2C(=O)C3(CCOC3)c3ccccc32)cc1 (centres unmarked) [Compound Example 9]
205 nM	O=C(NO)c1ccc(CN2C(=O)c3ccccc3C23CCNCC3)cc1 [Compound Example 10, N-hydroxy-4-((3-oxospiro[isoindoline-1,4′-piperidin]-2-yl)methyl)benzamide]
35 nM	CN(C)C(=O)N1CCC2(CC1)c1ccccc1C(=O)N2Cc1ccc(C(=O)NO)cc1 [Compound Example 11, 2-(4-(hydroxycarbamoyl)benzyl)-N,N-dimethyl-3-oxospiro[isoindoline-1,4′-piperidine]-1′-carboxamide]
26 nM	O=C(NO)c1ccc(CN2C(=O)c3ccccc3C23CCN(C2CC2)CC3)cc1 [Compound Example 12, 4-((1′-cyclopropyl-3-oxospiro[isoindoline-1,4′-piperidin]-2-yl)methyl)-N-hydroxybenzamide]
